{"source": "patent US12178878B2", "about": "“Amyloid peptide scaffolds coordinate with Alzheimer's disease drugs” (The University of Massachusetts, priority 2018, dated 2024)", "assay_type_in_all_cases": "binding", "key": {"[1]": {"system": "[…] (SEQ ID NO: 4) amyloid peptide", "conditions": "for AD compound captured, Wash 1 / AD compound captured, Wash 2 / AD compound captured, Wash 3: 150 μM inhibitor loaded; for AD compound captured, Wash 1: 1st pellet wash; for AD compound captured, Wash 2: 2nd pellet wash; for AD compound captured, Wash 3: 3rd pellet wash; for fraction of the 150 μM loaded drug incorporated into the peptide: UV-Vis, first wash", "method": "Amyloid Peptide/Inhibitor Coordination Studies in Dilute Solutions. […]. As a negative control, 1 mL of 0.1 M PBS buffer was added. The mixtures were vortexed and sonicated to homogenously disperse any solid aggregates and stirred overnight to allow for coordination. The mixtures were transferred to 2 mL Eppendorf tubes and centrifuged for 15 mins at 4,400 rpm (14° C.) to pelletize the amyloid bound-inhibitors, and the supernatant was decanted. Subsequently, 1 mL of DI water was added to wash the pellet (followed by vortexing until obtaining a homogenous dispersion) in order to remove any unbound inhibitor. The samples were then centrifuged again at the same conditions so as to pelletize the amyloid materials, and the supernatant was decanted. Another 1 mL of DI water was then added into the pellet, the mixture was vortexed, and the physically bound inhibitor into the dilute amyloid peptide dispersions was quantified by UV-Vis between 200-600 nm and MS. This step is denoted as wash 1 in our study. Two additional pellet purification cycles were realized with replacement of the decanted volume each time with 1 mL of fresh DI water (denoted as wash 2 and wash 3 respectively). The inhibitor-containing peptides amyloids were normalized at 400 nm over the respective no inhibitor-containing amyloid peptides at the specific washing step, and the measured inhibitor peak values (at 315 nm and 323 nm) were subtracted from that of the amyloid peptide carriers at the same wavelength and concentration. The amount of inhibitors coordinated with the amyloid peptide carriers was quantified based on a calibration curve by both UV-Vis and MS.\n. The peak at 315 nm was selected for inhibitor quantification due the absence of peaks at that range for both peptides. […]. However, the peak at 315 nm was selected for inhibitor quantification, and the following equation was used for both peptides: A315=A315 ([…]/Donepezil)−A315 ([…])\n[…]. The peak at 323 nm was used for inhibitor quantification due the absence of peaks at that range for both peptides. […]."}, "[2]": {"system": "[…] (SEQ ID NO: 3) amyloid peptide", "experiment": "Coordination at higher peptide concentration (amyloid gel, 5 mg/mL), inhibitor capturing", "conditions": "for capturing efficiency: relative to 2nd pellet wash, UV-Vis; for AD compound captured, Wash 1 / AD compound captured, Wash 2 / AD compound captured, Wash 3: 1000 μM inhibitor solution added; for AD compound captured, Wash 1: 1st pellet wash; for AD compound captured, Wash 2: 2nd pellet wash; for AD compound captured, Wash 3: 3rd pellet wash", "method": "Amyloid Fibrils Preparation and Characterization. For the formation of fibrils, the amyloid peptides were dispersed in DI water at a 10 mg/ml, vortexed, heated at 60° C. for 30 sec, and sonicated for 15 mins (this cycle was repeated 10 times overall), and finally left overnight at room temperature to form a hydrogel. […] That was confirmed with Field Emission Scanning Electron Microscopy (FESEM) and Congo Red staining (CR).\nCoordination Studies at Higher Peptide Concentrations and Inhibitor Capturing. […] (SEQ ID NO: 4) or […] (SEQ ID NO: 3) amyloid peptide gels (10 mg/mL, 1 mL volume) and was left to physically complex under stirring overnight (the final peptide concentration was diluted to 5 mg/mL). A control using 1 mL of 0.1 M PBS (no inhibitor) was also prepared. The complexed amyloid/inhibitor materials were then transferred to 5 mL conical Eppendorf tubes, and centrifuged for 15 mins at 4,400 rpm (14° C.). The supernatant was decanted, and 2 mL of DI water were subsequently added to wash the pellet (followed by vortexing until obtaining a homogenous dispersion) in order to remove any unbound inhibitor. The samples were then centrifuged again at the same conditions so as to pelletize the amyloid materials, and the supernatant was decanted. Another 2 mL of DI water were then added into the pellet, the mixture was vortexed, and the physically bound inhibitor into the amyloid peptides was quantified by UV-Vis between 200-600 nm and MS. This step is denoted as wash 1 in our study. Two additional pellet purification cycles were realized with replacement of the decanted volume each time with 2 mL of fresh DI water (denoted as wash 2 and wash 3 respectively). The inhibitor-containing amyloid peptides were normalized at 400 nm over the respective no inhibitor-containing ones at the specific washing step."}, "[3]": {"system": "[…] (SEQ ID NO: 4) amyloid peptide", "conditions": "for capturing efficiency: relative to 2nd pellet wash, UV-Vis; for AD compound captured, Wash 1 / AD compound captured, Wash 2 / AD compound captured, Wash 3: 1000 μM inhibitor solution added; for AD compound captured, Wash 1: 1st pellet wash; for AD compound captured, Wash 2: 2nd pellet wash; for AD compound captured, Wash 2 / AD compound captured, Wash 3: room temperature; for AD compound captured, Wash 3: 3rd pellet wash", "method": "Amyloid Fibrils Preparation and Characterization. For the formation of fibrils, the amyloid peptides were dispersed in DI water at a 10 mg/ml, vortexed, heated at 60° C. for 30 sec, and sonicated for 15 mins (this cycle was repeated 10 times overall), and finally left overnight at room temperature to form a hydrogel.\nA control using 1 mL of 0.1 M PBS (no inhibitor) was also prepared. The complexed amyloid/inhibitor materials were then transferred to 5 mL conical Eppendorf tubes, and centrifuged for 15 mins at 4,400 rpm (14° C.). The supernatant was decanted, and 2 mL of DI water were subsequently added to wash the pellet (followed by vortexing until obtaining a homogenous dispersion) in order to remove any unbound inhibitor. The samples were then centrifuged again at the same conditions so as to pelletize the amyloid materials, and the supernatant was decanted. Another 2 mL of DI water were then added into the pellet, the mixture was vortexed, and the physically bound inhibitor into the amyloid peptides was quantified by UV-Vis between 200-600 nm and MS. This step is denoted as wash 1 in our study. Two additional pellet purification cycles were realized with replacement of the decanted volume each time with 2 mL of fresh DI water (denoted as wash 2 and wash 3 respectively). The inhibitor-containing amyloid peptides were normalized at 400 nm over the respective no inhibitor-containing ones at the specific washing step."}, "[4]": {"conditions": "FYTGAIIGNYF gel 5 mg/mL, by UV-Vis"}, "[5]": {"conditions": "YFTGAIIGNFY gel 5 mg/mL, by UV-Vis"}}, "note": "Like-named read-outs stand apart in the source and are kept apart here.", "data": [{"compound": "Nc1c2c(nc3ccccc13)CCCC2", "note": "[tacrine]", "values": [{"measurement": "AD compound captured, Wash 1", "setting": "[1]; […] 1 mg/mL, by MS", "result": "37 ± 2", "unit": "µM"}, {"measurement": "AD compound captured, Wash 2", "setting": "[1]; […] 1 mg/mL, by MS", "result": "2 ± 2", "unit": "µM"}, {"measurement": "AD compound captured, Wash 3", "setting": "[1]; […] 1 mg/mL, by MS", "result": 0, "unit": "µM"}, {"measurement": "AD compound captured, Wash 1", "setting": "[1]; […] 1 mg/mL, by UV-Vis", "result": 26, "unit": "µM"}, {"measurement": "AD compound captured, Wash 1", "setting": "[1]; […] 1 mg/mL, by UV-Vis, listed as Tacrine", "result": "26 ± 2", "unit": "µM"}, {"measurement": "AD compound captured, Wash 2", "setting": "[1]; […] 1 mg/mL, by UV-Vis", "result": "14 ± 2", "unit": "µM"}, {"measurement": "AD compound captured, Wash 3", "setting": "[1]; […] 1 mg/mL, by UV-Vis", "result": "3 ± 2", "unit": "µM"}, {"measurement": "fraction of the 150 μM loaded drug incorporated into the peptide", "setting": "[1]; […] 1 mg/mL", "result": "approximately ⅕"}, {"measurement": "capturing efficiency", "setting": "[2]; […] 5 mg/mL", "result": "approximately 8%"}, {"measurement": "AD compound captured, Wash 1", "setting": "[2]; […] gel 5 mg/mL, by MS", "result": "114 ± 6", "unit": "µM"}, {"measurement": "AD compound captured, Wash 2", "setting": "[2]; […] gel 5 mg/mL, by MS", "result": "102 ± 2", "unit": "µM"}, {"measurement": "AD compound captured, Wash 3", "setting": "[2]; […] gel 5 mg/mL, by MS", "result": "94 ± 10", "unit": "µM"}, {"measurement": "AD compound captured, Wash 1", "setting": "[2]; […] gel 5 mg/mL, by UV-Vis", "result": "104 ± 16", "unit": "µM"}, {"measurement": "AD compound captured, Wash 2", "setting": "[2]; […] gel 5 mg/mL, by UV-Vis", "result": "82 ± 9", "unit": "µM"}, {"measurement": "AD compound captured, Wash 3", "setting": "[2]; […] gel 5 mg/mL, by UV-Vis", "result": "72 ± 10", "unit": "µM"}, {"measurement": "capturing efficiency", "setting": "[3]; […] 5 mg/mL", "result": "approximately 8%"}, {"measurement": "AD compound captured, Wash 1", "setting": "[3]; […] gel 5 mg/mL, by MS", "result": "98 ± 9", "unit": "µM"}, {"measurement": "AD compound captured, Wash 2", "setting": "[3]; […] gel 5 mg/mL, by MS", "result": "75 ± 4", "unit": "µM"}, {"measurement": "AD compound captured, Wash 3", "setting": "[3]; […] gel 5 mg/mL, by MS", "result": "63 ± 8", "unit": "µM"}, {"measurement": "AD compound captured, Wash 1", "setting": "[3]; […] gel 5 mg/mL, by UV-Vis", "result": "90 ± 4", "unit": "µM"}, {"measurement": "AD compound captured, Wash 2", "setting": "[3]; […] gel 5 mg/mL, by UV-Vis", "result": "80 ± 5", "unit": "µM"}, {"measurement": "AD compound captured, Wash 3", "setting": "[3]; […] gel 5 mg/mL, by UV-Vis", "result": "73 ± 5", "unit": "µM"}]}, {"compound": "COc1cc2c(cc1OC)C(=O)C(CC1CCN(Cc3ccccc3)CC1)C2", "note": "(centres unmarked) [donepezil]", "values": [{"measurement": "AD compound captured, Wash 1", "setting": "[1]; YFTGAIIGNFY 1 mg/mL, by MS", "result": "43 ± 6", "unit": "µM"}, {"measurement": "AD compound captured, Wash 2", "setting": "[1]; YFTGAIIGNFY 1 mg/mL, by MS", "result": "32 ± 4", "unit": "µM"}, {"measurement": "AD compound captured, Wash 3", "setting": "[1]; YFTGAIIGNFY 1 mg/mL, by MS", "result": "21 ± 9", "unit": "µM"}, {"measurement": "AD compound captured, Wash 1", "setting": "[1]; YFTGAIIGNFY 1 mg/mL, by UV-Vis", "result": 38, "unit": "µM"}, {"measurement": "AD compound captured, Wash 1", "setting": "[1]; YFTGAIIGNFY 1 mg/mL, by UV-Vis, listed as Donepezil", "result": "38 ± 4", "unit": "µM"}, {"measurement": "AD compound captured, Wash 2", "setting": "[1]; YFTGAIIGNFY 1 mg/mL, by UV-Vis", "result": "24 ± 4", "unit": "µM"}, {"measurement": "AD compound captured, Wash 3", "setting": "[1]; YFTGAIIGNFY 1 mg/mL, by UV-Vis", "result": "5 ± 4", "unit": "µM"}, {"measurement": "fraction of the 150 μM loaded drug incorporated into the peptide", "setting": "[1]; YFTGAIIGNFY 1 mg/mL", "result": "approximately ¼"}, {"measurement": "capturing efficiency", "setting": "[2]; FYTGAIIGNYF 5 mg/mL", "result": 17, "unit": "%"}, {"measurement": "AD compound captured, Wash 1", "setting": "[2]; FYTGAIIGNYF gel 5 mg/mL, by MS", "result": "163 ± 4", "unit": "µM"}, {"measurement": "AD compound captured, Wash 2", "setting": "[2]; FYTGAIIGNYF gel 5 mg/mL, by MS", "result": "151 ± 1", "unit": "µM"}, {"measurement": "AD compound captured, Wash 3", "setting": "[2]; FYTGAIIGNYF gel 5 mg/mL, by MS", "result": "148 ± 3", "unit": "µM"}, {"measurement": "AD compound captured, Wash 1", "setting": "[2]; [4]", "result": "187 ± 19", "unit": "µM"}, {"measurement": "AD compound captured, Wash 2", "setting": "[2]; [4]", "result": "173 ± 33", "unit": "µM"}, {"measurement": "AD compound captured, Wash 3", "setting": "[2]; [4]", "result": "160 ± 33", "unit": "µM"}, {"measurement": "capturing efficiency", "setting": "[3]; YFTGAIIGNFY 5 mg/mL", "result": 14, "unit": "%"}, {"measurement": "AD compound captured, Wash 1", "setting": "[3]; YFTGAIIGNFY gel 5 mg/mL, by MS", "result": "154 ± 7", "unit": "µM"}, {"measurement": "AD compound captured, Wash 2", "setting": "[3]; YFTGAIIGNFY gel 5 mg/mL, by MS", "result": "141 ± 10", "unit": "µM"}, {"measurement": "AD compound captured, Wash 3", "setting": "[3]; YFTGAIIGNFY gel 5 mg/mL, by MS", "result": "129 ± 24", "unit": "µM"}, {"measurement": "AD compound captured, Wash 1", "setting": "[3]; [5]", "result": "154 ± 11", "unit": "µM"}, {"measurement": "AD compound captured, Wash 2", "setting": "[3]; [5]", "result": "135 ± 8", "unit": "µM"}, {"measurement": "AD compound captured, Wash 3", "setting": "[3]; [5]", "result": "117 ± 5", "unit": "µM"}]}]}
